Data as given in patent publication US7369696B2, “Classification of cells into subpopulations using cell classifying data” (GE Healthcare UK Limited, priority 2003, dated 2008).

Test system: U2OS cells (ATCC HTB-96) transfected with cyclin B1 promoter/D-box/CRS-GFP cell cycle reporter construct
Experiment: Effect of cell cycle blocking agents on GFP fluorescence from cell cycle phase marker, transiently transfected cells
Type: cell-based
Conditions: U2OS cells 24 hours after transfection, exposed to blocker for a further 24 hours; confocal scanning imager with automated image analysis; control = culture media alone
Protocol: U2OS cells (ATCC HTB-96) were cultured in wells of a 96 well microtitre plate. Cells were transfected with a cell cycle reporter construct prepared according to Example 1, comprising a cyclin B1 promoter operably linked to sequences encoding the cyclin B1 D-box, the cyclin B1 CRS, and GFP in a pCORON4004 vector (Amersham Biosciences) using Fugene 6 (Roche) as the transfection agent.
Following 24 hours of culture, cells were exposed to the specific cell cycle blockers mimosine (blocks at G1/S phase boundary) or demecolcine (blocks in M phase). Control cells were exposed to culture media alone.
Cells were incubated for a further 24 hours and then analysed for nuclear GFP expression using a confocal scanning imager with automated image analysis (IN Cell Analysis System, Amersham Biosciences).

SMILES	nuclear GFP expression (fluorescence) compared to control cells
CN[C@H]1CCc2cc(OC)c(OC)c(OC)c2-c2ccc(OC)c(=O)cc21 [demecolcine]	increased fluorescence compared to control cells
NC(Cn1ccc(=O)c(O)c1)C(=O)O (centres unmarked) [mimosine]	decreased fluorescence compared to control cells
